Patent US20160186187A1, “REGULATABLE GENE EXPRESSION” (BIOSYNTIA APS, priority 2013, published 2016)
“Also recorded” adds a separate entry of the source.

Key:
EcpGEBO5.1 [1] = assay: Growth response of EcpGEBO5.1 for xanthine alkaloids (plate selection assay); assay type: cell-based, Escherichia coli; details: for Growth, Selection: ampicillin 50 μg/mL, spectinomycin 80 μg/mL, chloramphenicol 30 μg/mL; for Growth, No Selection: plates without spectinomycin and chloramphenicol
Procedure: The growth response of EcpGEBO5.1 for 4 different xanthine alkaloids was determined empirically using a selection assay with varying concentrations xanthine-based compounds: theophylline, xanthine, theobromine and caffeine.
Procedure: 300-400 colony forming units were plated on plates containing ampicillin (50 μg/mL), spectinomycin (80 μg/mL), chloramphenicol (30 μg/mL) and the indicated concentration of xanthine-based compound—see Table 2: Dissociation constants (KJ for the xanthines with the aptamer region (mCTC8-4 aptamer) previously determined (Jenison et al., 1994). No selection means plates without spectinomycin and chloramphenicol. (+) means growth was observed. (−) means no growth was observed. (˜) means reduced growth was observed.

EcpGEBO5.1 + pZE21 = assay: Growth response to xanthine in M9 minimal medium, control strain; assay type: cell-based, Escherichia coli; details: for OD600 of EcpGEBO5.1 + pZE21: selection (chloramphenicol 30 μg/ml, spectinomycin 80 μg/ml), 16 h
Procedure: (§1) In order to test the hypothesis, growth experiments with and without xanthine was performed. First, in order eliminate the putative contribution of any background mutation of the genome or of the pGEBO5.1 assay plasmid the library plasmid encoding the putative xanthine permease (pZE21_1H) from the AB95D01 soil metagenomic library was extracted and retransformed in strain EcpGEBO5.1. Instead of testing the strain in LB-medium, xanthine-free M9 minimal medium was used to test the effect of defined xanthine concentrations. Strain EcpGEBO5.1 transformed with the empty cloning vector pZE21 (EcpGEBO5.1+pZE21) was used as a control. Both strains were inoculated in 3 ml M9 minimal medium supplemented with kanamycin 50 μg/ml and ampicillin 50 μg/ml and grown overnight. The next day a new 3 ml culture was prepared under same conditions and inoculated by transferring 30 μl from the initial culture. At exponential phase (when the optical density at 600 nm (0D600) had reached ˜0.5) the culture was used to inoculate 200 μl M9 minimal selective media in a microtiterplate with varying concentrations of xanthine (Table below). Inoculums were diluted such that the initial OD600 of each culture was exactly 0.01. The microtiter plate was incubated at 37° C. in an ELx808 Absorbance Microtiterplate Reader from Biotek with shaking at 200 rpm. OD600 was measured after 16 h and the average and standard deviation was calculated from three biological replicates of each xanthine concentration. When grown in concentrations of xanthine ranging from 0 mM to 1 mM but no chloramphenicol or spectinomycin both strains were unaffected by the presence of xanthine. When applying selection (chloramphenicol 30 μg/ml and spectinomycin 80 μg/ml), growth was observed only for the strain harbouring the xanthine permease containing plasmid (pZE21_1H) and only when xanthine was added (Table 3). The experiment confirms the prediction that the DNA insert is encoding a xanthine permease protein, and that the increased xanthine uptake enables growth under selective conditions.

EcpGEBO5.1 + pZE21_1H = assay: Growth response to xanthine in M9 minimal medium, xanthine permease strain; assay type: cell-based, Escherichia coli; details: for OD600 of EcpGEBO5.1 + pZE21_1H: selection (chloramphenicol 30 μg/ml, spectinomycin 80 μg/ml), 16 h
Procedure: as §1

mCTC8-4 aptamer = details: previously determined (Jenison et al., 1994); cited from earlier work
EcpGEBO5.1 [2] = assay: Spontaneous resistance of EcpGEBO5.1 in single and dual antibiotic selection (plating); assay type: cell-based, Escherichia coli; details: for Growth on antibiotic plate: LB agar, chloramphenicol 30 μg/mL and/or spectinomycin 80 μg/mL; for Colonies on single selection plates (in words): three plates each, 24 h of incubation
Procedure: pGEBO5.1 was transformed into E. coli Dh10B cells (forming EcpGEBO5.1) using standard methods known to the skilled person. To test whether the double selection system solved the problem of spontaneous resistance, plating of up to 1.3×10^8 EcpGEBO5.1 cells was performed in 10 replicates on LB agar media containing spectinomycin (80 μg/mL) and chloramphenicol (30 μg/mL) (‘dual selection’). As a control, plating on plates containing only chloramphenicol (30 μg/mL) or spectinomycin (80 μg/mL) (‘single selection’) was each performed in triplicate (See Table 1). Each plate was incubated for 72 hours. Of the 10 plates with dual selection no colonies were observed within the first 48 hours of incubation. […] Therefore, it appears that the probability of a single mutation to confer spontaneous resistance to one antibiotic is significant whereas the probability of a simultaneous double mutation to confer spontaneous resistance to both antibiotics is effectively nil.

[3] = xanthine 0 mM to 1 mM, no chloramphenicol or spectinomycin
[4] = 1.3 × 10^6 CFU plated (1 ul), 24 h growth
[5] = 1.3 × 10^6 CFU plated (1 ul), 48 h growth
[6] = 1.3 × 10^6 CFU plated (1 ul), 72 h growth
[7] = 1.3 × 10^7 CFU plated (10 ul), 24 h growth
[8] = 1.3 × 10^7 CFU plated (10 ul), 48 h growth
[9] = 1.3 × 10^7 CFU plated (10 ul), 72 h growth

| Structure (SMILES) | Growth, Selection (EcpGEBO5.1 [1]; 1 mM xanthine compound) | Growth, No Selection (EcpGEBO5.1 [1]; 1 mM xanthine compound) | Kd (mCTC8-4 aptamer) [µM] | Growth on antibiotic plate (EcpGEBO5.1 [2]; [4]) | Growth on antibiotic plate (EcpGEBO5.1 [2]; [5]) | Growth on antibiotic plate (EcpGEBO5.1 [2]; [6]) | Growth on antibiotic plate (EcpGEBO5.1 [2]; [7]) | Growth on antibiotic plate (EcpGEBO5.1 [2]; [8]) | Growth on antibiotic plate (EcpGEBO5.1 [2]; [9]) | Colonies on single selection plates (in words) (EcpGEBO5.1 [2]) | also measured |
| --- | --- | --- | --- | --- | --- | --- | --- | --- | --- | --- | --- |
| O=c1[nH]c(=O)c2[nH]cnc2[nH]1 [Xanthine, xanthine] | − | + | 8.5 ± 0.4 |  |  |  |  |  |  |  | Growth of EcpGEBO5.1 under selective conditions (in words) (EcpGEBO5.1 [1]; 1 mM xanthine in the growth medium): lack of growth; also recorded: did not enable growth; Effect of xanthine on growth without selection (EcpGEBO5.1 + pZE21; [3]): unaffected; OD600 of EcpGEBO5.1 + pZE21 (EcpGEBO5.1 + pZE21; xanthine 1.0 μM): 0.02 ± 0.00; OD600 of EcpGEBO5.1 + pZE21 (EcpGEBO5.1 + pZE21; xanthine 1.5 μM): 0.02 ± 0.00; OD600 of EcpGEBO5.1 + pZE21 (EcpGEBO5.1 + pZE21; xanthine 2.0 μM): 0.02 ± 0.00; OD600 of EcpGEBO5.1 + pZE21 (EcpGEBO5.1 + pZE21; xanthine 2.5 μM): 0.03 ± 0.00; OD600 of EcpGEBO5.1 + pZE21 (EcpGEBO5.1 + pZE21; xanthine 4.5 μM): 0.03 ± 0.00; OD600 of EcpGEBO5.1 + pZE21 (EcpGEBO5.1 + pZE21; xanthine 12.5 μM): 0.03 ± 0.01; Effect of xanthine on growth without selection (EcpGEBO5.1 + pZE21_1H; [3]): unaffected; OD600 of EcpGEBO5.1 + pZE21_1H (EcpGEBO5.1 + pZE21_1H; xanthine 1.0 μM): 0.17 ± 0.01; OD600 of EcpGEBO5.1 + pZE21_1H (EcpGEBO5.1 + pZE21_1H; xanthine 1.5 μM): 0.29 ± 0.01; OD600 of EcpGEBO5.1 + pZE21_1H (EcpGEBO5.1 + pZE21_1H; xanthine 2.0 μM): 0.37 ± 0.00; OD600 of EcpGEBO5.1 + pZE21_1H (EcpGEBO5.1 + pZE21_1H; xanthine 2.5 μM): 0.42 ± 0.00; OD600 of EcpGEBO5.1 + pZE21_1H (EcpGEBO5.1 + pZE21_1H; xanthine 4.5 μM): 0.50 ± 0.01; OD600 of EcpGEBO5.1 + pZE21_1H (EcpGEBO5.1 + pZE21_1H; xanthine 12.5 μM): 0.51 ± 0.01 |
| Cn1c(=O)c2c(ncn2C)n(C)c1=O [Caffeine, caffeine] |  |  | 3500 ± 1500 |  |  |  |  |  |  |  | Growth, Selection (EcpGEBO5.1 [1]; 3 mM xanthine compound): −; Growth, No Selection (EcpGEBO5.1 [1]; 3 mM xanthine compound): +; Growth, Selection (EcpGEBO5.1 [1]; 7 mM xanthine compound): − |
| Cn1cnc2c1c(=O)[nH]c(=O)n2C [Theobromine, theobromine] | − | + | > 500 |  |  |  |  |  |  |  |  |
| CN[C@@H]1[C@H](O)[C@H](NC)[C@H]2O[C@@]3(O)C(=O)C[C@@H](C)O[C@H]3O[C@@H]2[C@H]1O [spectinomycin] |  |  |  | + (‘+’ single colonies (1-1000)) | ++ | ++ | + (‘+’ single colonies (1-1000)) | ++ | ++ | numerous colonies |  |
| Cn1c(=O)c2[nH]cnc2n(C)c1=O [Theophylline, theophylline] |  |  | 0.32 ± 0.13 |  |  |  |  |  |  |  | Growth, No Selection (EcpGEBO5.1 [1]; 0.1 mM xanthine compound): +; Growth, Selection (EcpGEBO5.1 [1]; 2 mM xanthine compound): +; Growth, No Selection (EcpGEBO5.1 [1]; 2 mM xanthine compound): + |
| O=C(N[C@H](CO)[C@H](O)c1ccc([N+](=O)[O-])cc1)C(Cl)Cl [chloramphenicol] |  |  |  | − | + (‘+’ single colonies (1-1000)) | + (‘+’ single colonies (1-1000)) | + (‘+’ single colonies (1-1000)) | ++ | ++ | numerous colonies |  |
